Experimental data as given in patent publication US20180319753A1, “MICROBIOCIDAL OXADIAZOLE DERIVATIVES” (SYNGENTA PARTICIPATIONS AG, priority 2015, published 2018).

How the values were obtained:
[1] = test system: Puccinia recondita f. Sp. Tritici; assay: Puccinia recondita f. sp. tritici / wheat / leaf disc preventative (brown rust); format: in vivo; conditions: foliar, 200 ppm in the applied formulation, wheat leaf segments cv. Kanzler, inoculated 1 day after application, assessed 7 to 9 days after application, read-out: disease control compared to untreated control leaf disks
Method: Leaf disks or leaf segments of various plant species are cut from plants grown in a greenhouse. The cut leaf disks or segments are placed in multiwell plates (24-well format) onto water agar. The leaf disks are sprayed with a test solution before (preventative) or after (curative) inoculation. Compounds to be tested are prepared as DMSO solutions (max. 10 mg/ml) which are diluted to the appropriate concentration with 0.025% Tween20 just before spraying. The inoculated leaf disks or segments are incubated under defined conditions (temperature, relative humidity, light, etc.) according to the respective test system. A single evaluation of disease level is carried out 3 to 14 days after inoculation, depending on the pathosystem. Percent disease control relative to the untreated check leaf disks or segments is then calculated. Wheat leaf segments cv. Kanzler were placed on agar in multiwell plates (24-well format) and sprayed with the formulated test compound diluted in water. The leaf disks were inoculated with a spore suspension of the fungus 1 day after application. The inoculated leaf segments were incubated at 19° C. and 75% relative humidity (rh) under a light regime of 12 hours light/12 hours darkness in a climate cabinet and the activity of a compound was assessed as percent disease control compared to untreated when an appropriate level of disease damage appears in untreated check leaf segments (7 to 9 days after application). The following compounds at 200 ppm in the applied formulation give at least 80% disease control in this test when compared to untreated control leaf disks under the same conditions, which show extensive disease development.

[2] = test system: Puccinia recondita f. Sp. Tritici; assay: Puccinia recondita f. sp. tritici / wheat / leaf disc curative (brown rust); format: in vivo; conditions: foliar, 200 ppm in the applied formulation, wheat leaf segments cv. Kanzler, applied 1 day after inoculation, assessed 6 to 8 days after application, read-out: disease control compared to untreated control leaf disks
Method: (§1) Leaf disks or leaf segments of various plant species are cut from plants grown in a greenhouse. The cut leaf disks or segments are placed in multiwell plates (24-well format) onto water agar. The leaf disks are sprayed with a test solution before (preventative) or after (curative) inoculation. Compounds to be tested are prepared as DMSO solutions (max. 10 mg/ml) which are diluted to the appropriate concentration with 0.025% Tween20 just before spraying. The inoculated leaf disks or segments are incubated under defined conditions (temperature, relative humidity, light, etc.) according to the respective test system. A single evaluation of disease level is carried out 3 to 14 days after inoculation, depending on the pathosystem. Percent disease control relative to the untreated check leaf disks or segments is then calculated.
Wheat leaf segments cv. Kanzler are placed on agar in multiwell plates (24-well format). The leaf segments are then inoculated with a spore suspension of the fungus. Plates were stored in darkness at 19° C. and 75% relative humidity. The formulated test compound diluted in water was applied 1 day after inoculation. The leaf segments were incubated at 19° C. and 75% relative humidity under a light regime of 12 hours light/12 hours darkness in a climate cabinet and the activity of a compound was assessed as percent disease control compared to untreated when an appropriate level of disease damage appears in untreated check leaf segments (6 to 8 days after application).
(§2) The following compounds at 200 ppm in the applied formulation give at least 80% disease control in this test when compared to untreated control leaf disks under the same conditions, which show extensive disease development.

[3] = test system: Phakopsora pachyrhizi; assay: Phakopsora pachyrhizi / soybean / leaf disc preventative (Asian soybean rust); format: in vivo; conditions: foliar, 200 ppm in the applied formulation, soybean leaf disks, inoculated one day after application, assessed 12 to 14 days after application, read-out: disease control compared to untreated control leaf disks
Method: as §1
Soybean leaf disks are placed on water agar in multiwell plates (24-well format) and sprayed with the formulated test compound diluted in water. One day after application leaf discs are inoculated by spraying a spore suspension on the lower leaf surface. After an incubation period in a climate cabinet of 24-36 hours in darkness at 20° C. and 75% rh leaf disc are kept at 20° C. with 12 h light/day and 75% rh. The activity of a compound is assessed as percent disease control compared to untreated when an appropriate level of disease damage appears in untreated check leaf disks (12 to 14 days after application).
as §2

[4] = test system: Glomerella lagenarium (Colletotrichum lagenarium); assay: Glomerella lagenarium (Colletotrichum lagenarium) liquid culture / cucumber / preventative (anthracnose); format: cell-based; conditions: Colletotrichum orbiculare; 20 ppm in the applied formulation; liquid culture in PDB, 24° C.; 3 to 4 days after application; read-out: disease control compared to untreated control (inhibition of growth measured photometrically)
Method: Mycelia fragments or conidia suspensions of a fungus prepared either freshly from liquid cultures of the fungus or from cryogenic storage, are directly mixed into nutrient broth. DMSO solutions of the test compound (max. 10 mg/ml) are diluted with 0.025% Tween20 by a factor of 50 and 10 μl of this solution is pipetted into a microtiter plate (96-well format). The nutrient broth containing the fungal spores/mycelia fragments is then added to give an end concentration of the tested compound. The test plates are incubated in the dark at 24° C. and 96% relative humidity. The inhibition of fungal growth is determined photometrically after 2 to 7 days, depending on the pathosystem, and percent antifungal activity relative to the untreated check is calculated.
Conidia of the fungus from cryogenic storage are directly mixed into nutrient broth (PDB—potato dextrose broth). After placing a (DMSO) solution of test compound into a microtiter plate (96-well format), the nutrient broth containing the fungal spores is added. The test plates are incubated at 24° C. and the inhibition of growth is measured photometrically 3 to 4 days after application.
The following compounds at 20 ppm in the applied formulation give at least 80% disease control in this test when compared to untreated control under the same conditions, which show extensive disease development.

Row | Structure (SMILES) | melting point [°C] | pest or weed control at 200 ppm [1] [%] | pest or weed control at 200 ppm [2] [%] | pest or weed control at 200 ppm [3] [%] | inhibition at 20 ppm [4] [%]
1 | Fc1ccccc1Sc1ccc(-c2noc(C(F)(F)F)n2)cc1 [Compound 1.14, 3-[4-(2-fluorophenyl)sulfanylphenyl]-5-(trifluoromethyl)-1,2,4-oxadiazole] | 35 to 38 | ≥ 80 | ≥ 80 | ≥ 80 | –
2 | FC(F)(F)c1nc(-c2ccc(CSc3ccccc3)nc2)no1 [Compound 1.23, 3-[6-(phenylsulfanylmethyl)-3-pyridyl]-5-(trifluoromethyl)-1,2,4-oxadiazole] | 71 to 78 | ≥ 80 | ≥ 80 | – | ≥ 80
3 | FC(F)(F)c1nc(-c2ccc(SCCc3ccccc3)cc2)no1 [Compound 1.5, 3-[4-(2-phenylethylsulfanyl)phenyl]-5-(trifluoromethyl)-1,2,4-oxadiazole] | – | ≥ 80 | ≥ 80 | ≥ 80 | ≥ 80
4 | [O-][S+](c1ccc(-c2noc(C(F)(F)F)n2)cc1)C1CCCC1 (stereo not drawn) [Compound 2.23, 3-(4-cyclopentylsulfinylphenyl)-5-(trifluoromethyl)-1,2,4-oxadiazole] | – | ≥ 80 | ≥ 80 | ≥ 80 | ≥ 80
5 | Fc1cccc(F)c1Sc1ccc(-c2noc(C(F)(F)F)n2)cc1 [Compound 1.12, 3-[4-(2,6-difluorophenyl)sulfanylphenyl]-5-(trifluoromethyl)-1,2,4-oxadiazole] | 75 to 85 | – | ≥ 80 | ≥ 80 | ≥ 80
6 | FC(F)(F)c1nc(-c2ccc(Sc3ccccc3)nc2)no1 [Compound 1.7, 3-(6-phenylsulfanyl-3-pyridyl)-5-(trifluoromethyl)-1,2,4-oxadiazole] | 124 to 129 | – | ≥ 80 | ≥ 80 | ≥ 80
7 | Fc1ccccc1SCc1ccc(-c2noc(C(F)(F)F)n2)cc1 [Compound 1.15, 3-[4-[(2-fluorophenyl)sulfanylmethyl]phenyl]-5-(trifluoromethyl)-1,2,4-oxadiazole] | 56 to 61 | – | ≥ 80 | ≥ 80 | –
8 | CC(C)(C)[S+]([O-])c1ccc(-c2noc(C(F)(F)F)n2)cc1 (stereo not drawn) [Compound 2.19, 3-(4-tert-butylsulfinylphenyl)-5-(trifluoromethyl)-1,2,4-oxadiazole] | – | ≥ 80 | ≥ 80 | ≥ 80 | ≥ 80

Further lines, with some results ahead:

Row | melting point [°C] | Structure (SMILES) | pest or weed control at 200 ppm [1] [%] | pest or weed control at 200 ppm [2] [%] | pest or weed control at 200 ppm [3] [%] | inhibition at 20 ppm [4] [%]
9 | 118 to 123 | [O-][S+](c1ccc(-c2noc(C(F)(F)F)n2)cc1)c1ccc(F)cc1F (stereo not drawn) [Compound 2.5, 3-[4-(2,4-difluorophenyl)sulfinyl-phenyl]-5-(trifluoromethyl)-1,2,4-oxadiazole] | ≥ 80 | ≥ 80 | ≥ 80 | ≥ 80
10 | 120 to 125 | [O-][S+](Cc1c(F)cc(-c2noc(C(F)(F)F)n2)cc1F)c1ccccc1 (stereo not drawn) [Compound 2.32, 3-[4-(benzenesulfinylmethyl)-3,5-difluoro-phenyl]-5-(trifluoromethyl)-1,2,4-oxadiazole] | – | ≥ 80 | ≥ 80 | ≥ 80
11 | 94 to 99 | [O-][S+](c1ccc(F)cc1)c1ccc(-c2noc(C(F)(F)F)n2)cc1 (stereo not drawn) [Compound 2.13, 3-[4-(4-fluorophenyl)sulfinylphenyl]-5-(trifluoromethyl)-1,2,4-oxadiazole] | ≥ 80 | ≥ 80 | ≥ 80 | –
12 | 105 to 115 | COc1ccccc1[S+]([O-])c1ccc(-c2noc(C(F)(F)F)n2)cc1 (stereo not drawn) [Compound 2.15, 3-[4-(2-methoxyphenyl)sulfinyl-phenyl]-5-(trifluoromethyl)-1,2,4-oxadiazole] | ≥ 80 | ≥ 80 | ≥ 80 | –
13 | 103 to 105 | Cc1ccccc1[S+]([O-])c1ccc(-c2noc(C(F)(F)F)n2)cn1 (stereo not drawn) [Compound 2.25, 3-[6-(o-tolylsulfinyl)-3-pyridyl]-5-(trifluoromethyl)-1,2,4-oxadiazole] | ≥ 80 | – | ≥ 80 | ≥ 80
14 | 92 to 95 | [O-][S+](c1ccc(-c2noc(C(F)(F)F)n2)cn1)c1ccccc1F (stereo not drawn) [Compound 2.26, 3-[6-(2-fluorophenyl)sulfinyl-3-pyridyl]-5-(trifluoromethyl)-1,2,4-oxadiazole] | ≥ 80 | ≥ 80 | – | ≥ 80
15 | 100 to 103 | Cc1ccccc1[S+]([O-])c1ccc(-c2noc(C(F)(F)F)n2)cc1 (stereo not drawn) [Compound 2.24, 3-[4-(o-tolylsulfinyl)phenyl]-5-(trifluoromethyl)-1,2,4-oxadiazole] | ≥ 80 | ≥ 80 | – | ≥ 80
16 | 136 to 143 | O=S(=O)(c1ccc(-c2noc(C(F)(F)F)n2)cc1)c1cccc(F)c1 [Compound 3.14, 3-[4-(3-fluorophenyl)sulfonylphenyl]-5-(trifluoromethyl)-1,2,4-oxadiazole] | ≥ 80 | – | ≥ 80 | ≥ 80
17 | 163 to 167 | [O-][S+](Cc1ccc(-c2noc(C(F)(F)F)n2)c(F)c1F)c1ccccc1 (stereo not drawn) [Compound 2.31, 3-[4-(benzenesulfinylmethyl)-2,3-difluoro-phenyl]-5-(trifluoromethyl)-1,2,4-oxadiazole] | ≥ 80 | – | ≥ 80 | ≥ 80
18 | 38 to 43 | CCC(C)C[S+]([O-])c1ccc(-c2noc(C(F)(F)F)n2)cc1 (stereo not drawn) [Compound 2.22, 3-[4-(2-methylbutylsulfinyl)phenyl]-5-(trifluoromethyl)-1,2,4-oxadiazole] | – | ≥ 80 | ≥ 80 | ≥ 80
